Molecules are shown by their SMILES.

For test [1], the target named is T1, Polyunsaturated fatty acid 5-lipoxygenase (Homo sapiens, UniProt P09917).
T1 sequence (P09917 whole entry): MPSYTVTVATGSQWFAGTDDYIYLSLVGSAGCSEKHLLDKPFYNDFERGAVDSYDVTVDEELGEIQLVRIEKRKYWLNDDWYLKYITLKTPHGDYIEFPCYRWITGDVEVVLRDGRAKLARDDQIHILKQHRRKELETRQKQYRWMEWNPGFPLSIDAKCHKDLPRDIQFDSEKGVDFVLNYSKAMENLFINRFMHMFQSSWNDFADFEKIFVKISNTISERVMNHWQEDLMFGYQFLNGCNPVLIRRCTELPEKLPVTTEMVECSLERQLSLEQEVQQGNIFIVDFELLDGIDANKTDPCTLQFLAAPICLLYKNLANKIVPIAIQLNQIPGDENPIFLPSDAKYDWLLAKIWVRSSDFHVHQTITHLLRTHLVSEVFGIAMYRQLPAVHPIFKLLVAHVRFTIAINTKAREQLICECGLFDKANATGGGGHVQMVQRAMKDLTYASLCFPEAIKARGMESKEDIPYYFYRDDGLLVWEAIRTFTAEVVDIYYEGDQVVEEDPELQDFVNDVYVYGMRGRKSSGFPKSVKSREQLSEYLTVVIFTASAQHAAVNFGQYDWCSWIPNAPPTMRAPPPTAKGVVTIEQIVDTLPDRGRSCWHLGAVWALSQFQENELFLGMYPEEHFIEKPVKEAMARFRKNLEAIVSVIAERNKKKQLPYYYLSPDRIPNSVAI
The test can be described thus: Inhibition of 5-LOX (unknown origin) after 5 mins by colorimetric method.

Test [2] has as its system Mus musculus. Briefly: Anti-inflammatory activity in Carrageenan-induced paw edema in […] mouse model assessed as inhibition of edema at 200 mg/kg, po relative to control. Set-up: scale not given: the % may be the effect or the level left. The format is functional.
For test [3], the system named is Rattus norvegicus. The test can be described thus: Anti-inflammatory activity in Carrageenan-induced paw edema in PO dosed rat model at 20 mg/kg assessed as inhibition of paw edema measured after 4 hrs relative to control. The format is functional.
The subject of test [4] is Rattus norvegicus. Briefly: Anti-inflammatory activity in Carrageenan-induced paw edema in PO dosed rat model at 10 mg/kg assessed as inhibition of paw edema measured after 4 hrs relative to control. The test is classed as functional.
The target of test [5] is Prostaglandin G/H synthase 1 (Homo sapiens, UniProt P23219). Briefly: Inhibition of COX-1 (unknown origin) at 40 uM relative to control.
Test [6] deals with Mus musculus. The test can be described thus: Anti-inflammatory activity in Carrageenan-induced paw edema in PO dosed mouse at 100 mg/kg assessed as inhibition of edema measured after 3 hr relative to control. The test is classed as functional. Set-up: scale not given: the % may be the effect or the level left.
For test [7], the system named is Rattus norvegicus. Briefly: Anti-inflammatory activity against Carrageenan-induced paw edema in PO dosed Wistar albino rat assessed as reduction in hind paw edema volume at 20 mg/kg relative to control. The test is classed as functional. Details: scale not given: the % may be the effect or the level left.
The test system of test [8] is Mus musculus. The test can be described thus: Anti-inflammatory activity against Carrageenan-induced paw edema in mouse model assessed as inhibition of edema at 100 mg/kg measured after 4 hrs relative to control. The format is functional. Set-up: scale not given: the % may be the effect or the level left.
In test [9] the test system is Rattus norvegicus. The test can be described thus: Ulcerogenic activity in Swiss albino Wistar rat assessed as ulcer lesion score at 100 mg/kg, po. The format is functional.
In test [10] the target is T2, Prostaglandin G/H synthase 1 (Ovis aries, UniProt P05979).
T2 sequence (P05979 whole entry): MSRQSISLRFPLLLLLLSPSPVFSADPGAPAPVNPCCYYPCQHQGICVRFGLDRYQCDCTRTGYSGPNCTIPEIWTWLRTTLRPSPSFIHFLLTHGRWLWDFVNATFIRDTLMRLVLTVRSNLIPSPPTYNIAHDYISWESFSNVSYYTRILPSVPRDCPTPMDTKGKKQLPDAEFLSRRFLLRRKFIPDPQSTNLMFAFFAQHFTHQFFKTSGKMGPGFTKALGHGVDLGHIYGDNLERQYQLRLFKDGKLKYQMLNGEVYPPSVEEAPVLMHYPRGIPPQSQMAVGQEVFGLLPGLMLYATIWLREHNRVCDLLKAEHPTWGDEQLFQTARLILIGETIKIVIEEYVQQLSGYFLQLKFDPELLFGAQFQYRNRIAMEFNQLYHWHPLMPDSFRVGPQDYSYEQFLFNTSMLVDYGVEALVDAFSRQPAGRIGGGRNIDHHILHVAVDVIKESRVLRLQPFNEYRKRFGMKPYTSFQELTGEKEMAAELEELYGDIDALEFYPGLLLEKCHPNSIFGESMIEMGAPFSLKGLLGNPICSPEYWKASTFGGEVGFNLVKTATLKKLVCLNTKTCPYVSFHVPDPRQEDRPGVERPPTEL
Briefly: Inhibition of ovine COX-1 by EIA method.

Test [11] deals with Rattus norvegicus. The test can be described thus: Anti-inflammatory activity in Carageenan-induced foot paw edema in Sprague-Dawley rat at 50 mg/kg assessed as reduction in paw edema volume relative to control. The format is functional. Set-up: scale not given: the % may be the effect or the level left.
In test [12] the test system is Rattus norvegicus. The test can be described thus: Anti-inflammatory activity in Carrageenan-induced paw edema in Wistar albino rat assessed as inhibition of edema measured after 1 hr relative to control. The format is functional. Set-up: scale not given: the % may be the effect or the level left.
The test system of test [13] is Rattus norvegicus. Briefly: Anti-inflammatory activity in Carrageenan-induced paw edema in Wistar albino rat assessed as inhibition of edema measured after 3 hr relative to control. The test is classed as functional. Set-up: scale not given: the % may be the effect or the level left.
In test [14] the test system is Rattus norvegicus. Briefly: Anti-inflammatory activity in Carrageenan-induced paw edema in Wistar albino rat assessed as inhibition of edema measured after 5 hr relative to control. Set-up: scale not given: the % may be the effect or the level left. The test is classed as functional.
Test [15] concerns the target T3, Prostaglandin G/H synthase 2 (Homo sapiens, UniProt P35354).
T3 sequence (P35354 whole entry): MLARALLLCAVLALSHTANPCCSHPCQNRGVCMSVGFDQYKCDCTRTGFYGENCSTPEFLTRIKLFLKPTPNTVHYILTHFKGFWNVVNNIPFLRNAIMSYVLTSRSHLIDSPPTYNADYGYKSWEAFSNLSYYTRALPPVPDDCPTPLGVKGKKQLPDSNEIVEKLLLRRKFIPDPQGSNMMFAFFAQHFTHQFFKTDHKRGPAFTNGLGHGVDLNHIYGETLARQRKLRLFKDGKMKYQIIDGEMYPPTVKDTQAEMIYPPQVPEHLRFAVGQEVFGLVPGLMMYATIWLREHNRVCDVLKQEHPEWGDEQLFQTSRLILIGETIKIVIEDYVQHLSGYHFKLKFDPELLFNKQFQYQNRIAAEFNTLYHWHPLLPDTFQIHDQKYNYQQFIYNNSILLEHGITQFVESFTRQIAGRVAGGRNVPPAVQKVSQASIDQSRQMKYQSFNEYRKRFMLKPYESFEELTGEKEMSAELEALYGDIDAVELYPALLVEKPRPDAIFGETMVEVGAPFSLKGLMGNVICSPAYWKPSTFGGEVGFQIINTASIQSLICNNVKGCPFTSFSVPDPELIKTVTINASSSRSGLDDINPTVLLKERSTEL
The test can be described thus: Inhibition of human COX-2 assessed as by fluorescence based microplate reader assay.

Test [16] concerns Rattus norvegicus. Briefly: Anti-ulcerative activity in Carrageenan-induced Sprague-Dawley rat ulcer model assessed as inhibition of ulcer index at 10 mg/kg,po. The format is functional.
Test [17] has as its system Rattus norvegicus. The test can be described thus: Anti-inflammatory activity against carrageenan-induced Albino Wistar rat paw edema model assessed as inhibition of rat paw edema at 50 mg/kg, po after 3 hrs relative to control. The test is classed as functional. Details: scale not given: the % may be the effect or the level left.
Test [18] deals with Rattus norvegicus. Briefly: Anti-inflammatory activity in Carrageenan-induced paw edema in PO dosed Swiss albino rat model at 10 mg/kg assessed as inhibition in volume of edema measured after 1 hrs relative to control. The format is functional.
In test [19] the test system is Rattus norvegicus. The test can be described thus: Anti-inflammatory activity in Carrageenan-induced paw edema in Wistar albino rat assessed as inhibition of edema measured after 3 hrs relative to control. The format is functional.
Test [20] concerns Rattus norvegicus. Briefly: Anti-ulcerative activity in aspirin induced Wistar rat ulcer model assessed as inhibition of ulcer index at 20 mg/kg,po. The format is functional.
Test [21] in a line: Selectivity index, ratio of IC50 for ovine COX1 to IC50 for recombinant human COX2.

Prostaglandin G/H synthase 1 (Homo sapiens, UniProt P23219), sequence (P23219 whole entry): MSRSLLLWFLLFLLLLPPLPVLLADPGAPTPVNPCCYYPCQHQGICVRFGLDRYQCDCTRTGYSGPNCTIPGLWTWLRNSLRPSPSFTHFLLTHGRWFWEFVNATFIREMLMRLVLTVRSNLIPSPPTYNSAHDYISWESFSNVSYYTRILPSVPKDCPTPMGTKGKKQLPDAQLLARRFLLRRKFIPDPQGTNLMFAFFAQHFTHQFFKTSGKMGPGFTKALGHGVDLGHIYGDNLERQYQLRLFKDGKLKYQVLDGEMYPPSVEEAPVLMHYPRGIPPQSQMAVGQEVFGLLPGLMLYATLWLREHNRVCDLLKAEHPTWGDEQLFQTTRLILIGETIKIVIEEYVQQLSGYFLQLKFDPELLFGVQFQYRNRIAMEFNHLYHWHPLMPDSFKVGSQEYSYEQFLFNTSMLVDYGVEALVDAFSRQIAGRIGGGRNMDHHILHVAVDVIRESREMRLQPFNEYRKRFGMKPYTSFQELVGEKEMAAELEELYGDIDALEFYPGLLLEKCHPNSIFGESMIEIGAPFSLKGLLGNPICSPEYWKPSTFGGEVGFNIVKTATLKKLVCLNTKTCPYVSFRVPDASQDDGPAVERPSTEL

Consider `Cc1ccc(N/N=C2\C(=N)N(c3ccc(S(N)(=O)=O)cc3)N=C2N)cc1`, for which, in test [1], 1.92 µM corresponded to half-maximal inhibition (IC50). Moreover, in the test with Mus musculus [2], the Activity is recorded as 15%.
`Cc1nn(-c2ccccc2)c2c1C(c1ccc([N+](=O)[O-])cc1)N1C=CC=NC1=N2` (stereo unspecified): in the test on Rattus norvegicus [3], the inhibition in vivo at 20 mg/kg stood at 80%. The inhibition in vivo at 10 mg/kg in the test with Rattus norvegicus [4] came out at 73%.
In [5], `COc1ccc(NCc2nc3ccccc3n2C(=O)c2ccccc2)cc1` registered an IC50 of 2.5 µM. Moreover, the Activity in the test with Mus musculus [6] was 40.3%.
Turning to `O=C1/C(=N\Nc2ccccc2Br)C(Nc2ccccc2F)=NN1CNc1ccccc1`, the Activity in the test with Rattus norvegicus [7] stood at 64%.
As to `O=C(NCn1c(CCl)nc2ccccc21)c1ccc(Cl)cc1`, the Activity came out at 66.66% in the test with Mus musculus [8] and 12.25 mm in the test on Rattus norvegicus [9].
Consider `O=C(NNC(=S)NCc1ccccc1)c1ccc(C2=CN3c4ccccc4NC3S2)nc1` (stereo unspecified), for which half-maximal inhibition in test [10] (IC50) was put at 0.075 µM. Besides, the Activity in the test with Rattus norvegicus [11] was 75.9%.
`CCOc1cc(C)nn1C(=O)CNc1ncnc2c1c(C)nn2-c1ccccc1`: the results for the Activity in the test on Rattus norvegicus [12], in the test with Rattus norvegicus [13] and in the test on Rattus norvegicus [14] were 82%, 94% and 90%, respectively. Also, in test [15], the IC50 was 0.16 µM.
In the case of `CS(=O)(=O)c1ccc(-n2cc(/C=N/Nc3ccc(S(N)(=O)=O)cc3)c(-c3ccc(Br)cc3)n2)cc1`, in the test with Rattus norvegicus [16], the UI is recorded as 3.77. The Activity in the test with Rattus norvegicus [17] came to 80%.
Consider `Cc1c(-c2ccccc2)n(C(=O)c2ccccc2)c2ccc(S(C)(=O)=O)cc12`, for which the inhibition in vivo at 10 mg/kg with Rattus norvegicus [18] came to 73.1%.
On to `CCc1c(-c2ccccc2)n(C(=O)c2ccc(F)cc2)c2ccc(S(C)(=O)=O)cc12`, for which the “inhibition (INH)” value with Rattus norvegicus [19] came to 90.5%. Besides, the UI with Rattus norvegicus [20] is listed as 7.3. Also, the Selectivity Index in test [21] turned out to be 65.7.
